Source: paper PMC7970697, “Inhibition and Induction by Poziotinib of Different Rat Cytochrome P450 Enzymes In Vivo and in an In Vitro Cocktail Method” (Frontiers in Pharmacology, 2021)
Where two headings read alike, the source gives them in different places.

Legend:
[1] = biological target: T1, cyp2b1 (Rattus norvegicus, UniProt P00176); experiment: Effect of poziotinib on cyp2b1 activity in rats (bupropion pharmacokinetics); format: in vivo, Sprague-Dawley rats; design: from tissue; host or cells: living male Sprague-Dawley rats (whole animal); details: poziotinib 5 mg/kg oral 7 days, bupropion probe
T1 sequence (P00176 1-491): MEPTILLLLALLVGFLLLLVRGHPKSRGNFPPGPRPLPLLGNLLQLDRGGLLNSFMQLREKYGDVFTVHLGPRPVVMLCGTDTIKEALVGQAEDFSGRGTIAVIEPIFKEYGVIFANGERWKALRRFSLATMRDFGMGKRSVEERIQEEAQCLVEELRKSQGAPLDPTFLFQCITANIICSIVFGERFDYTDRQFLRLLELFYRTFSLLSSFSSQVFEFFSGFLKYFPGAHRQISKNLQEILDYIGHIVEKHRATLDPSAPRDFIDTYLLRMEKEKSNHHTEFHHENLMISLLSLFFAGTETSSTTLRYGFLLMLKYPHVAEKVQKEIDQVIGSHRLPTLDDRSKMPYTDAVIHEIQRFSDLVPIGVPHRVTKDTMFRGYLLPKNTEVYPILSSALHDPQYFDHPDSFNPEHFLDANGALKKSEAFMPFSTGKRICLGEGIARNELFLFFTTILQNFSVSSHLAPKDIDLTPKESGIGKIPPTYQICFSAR
Procedure: (§2) Twelve male Sprague-Dawley rats (230 ± 20 g) were randomly divided into treated and control groups, with 6 in each group. […] The supernatant was mixed with 200 μL of acetonitrile and 20 μL of 0.5 μg/ml diazepam (IS), vortexed for 30 s, centrifuged at 13,000 rpm for 5 min, and the supernatant was injected into the UPLC-MS/MS system for analysis.
(§3) Pharmacokinetic parameters were calculated using DAS software (Version 3.2.8). SPSS software (version 16.0; SPSS Inc., Chicago, IL, United States) was used to analyze the significance of differences between the main pharmacokinetic parameters. p < 0.05 was considered statistically significant. GraphPad (version 8.0; GraphPad Software Inc., San Diego, CA, United States) was used to calculate IC50 and plot the plasma concentration-time curves and inhibition plots (type of inhibition, time- and concentration-dependence).

[2] = biological target: T1, cyp2b1; experiment: Cocktail method IC50 in rat liver microsomes, bupropion probe; format: in vitro ADME; design: from tissue; host or cells: rat liver microsomes, prepared in-house
Procedure: (§1) The cocktail method was employed to analyze the effects of poziotinib on cyp1a2, cyp2b1, cyp2c11, cyp2d1, cyp2e1, and cyp3a1/2. […] Then half-maximal inhibitory concentration (IC50) of poziotinib was determined with all of the CYPs. […]. To this cocktail, 1 mg/ml of RLMs, 100 mM potassium phosphate buffer (pH 7.4), poziotinib (1, 2.5, 5, 10, 25, 50, or 100 μM) were added to obtain a final volume of 200 μL. After pre-incubation of this mixture for 5 min in a shaking water bath at 37°C, 1 mM NADPH was added to start the reaction. The reactions were allowed to proceed for 30 min, after which 200 μL of acetonitrile and 20 μL of IS were added to terminate the reactions. The mixtures were vortexed for 30 s and centrifuged again at 13,000 rpm for 5 min.

[3] = test system: cyp3a1/2; experiment: Effect of poziotinib on cyp3a1/2 activity in rats (midazolam pharmacokinetics); format: in vivo, Sprague-Dawley rats; details: poziotinib 5 mg/kg oral 7 days, midazolam probe
Procedure: as §2, §3

[4] = test system: cyp3a1/2; experiment: Cocktail method IC50 in rat liver microsomes, midazolam probe; format: in vitro ADME
Procedure: as §1

[5] = biological target: T1, cyp2b1; experiment: Time- and concentration-dependent inhibition in RLMs, bupropion; format: in vitro ADME; design: from tissue; host or cells: rat liver microsomes, prepared in-house
Procedure: A mixture containing 1 mg/ml of RLMs, different concentrations of poziotinib (0, 2, 4, 8 and16 μM for 2b1; 0, 5, 10 20 and 40 μM for 2c11), and NADPH was pre-incubated at 37°C for 0, 5, 10, and 20 min; Methanol instead of poziotinib was performed as control. Then 20 μM bupropion or 100 μM tolbutamide was added and incubated at 37°C for 30 min. The reactions were carried out and analyzed in triplicate as described in 2.3.

[6] = biological target: T2, cyp2c11 (Rattus norvegicus, UniProt P08683); experiment: Cocktail method IC50 in rat liver microsomes, tolbutamide probe; format: in vitro ADME; design: from tissue; host or cells: rat liver microsomes, prepared in-house
T2 sequence (P08683 1-500): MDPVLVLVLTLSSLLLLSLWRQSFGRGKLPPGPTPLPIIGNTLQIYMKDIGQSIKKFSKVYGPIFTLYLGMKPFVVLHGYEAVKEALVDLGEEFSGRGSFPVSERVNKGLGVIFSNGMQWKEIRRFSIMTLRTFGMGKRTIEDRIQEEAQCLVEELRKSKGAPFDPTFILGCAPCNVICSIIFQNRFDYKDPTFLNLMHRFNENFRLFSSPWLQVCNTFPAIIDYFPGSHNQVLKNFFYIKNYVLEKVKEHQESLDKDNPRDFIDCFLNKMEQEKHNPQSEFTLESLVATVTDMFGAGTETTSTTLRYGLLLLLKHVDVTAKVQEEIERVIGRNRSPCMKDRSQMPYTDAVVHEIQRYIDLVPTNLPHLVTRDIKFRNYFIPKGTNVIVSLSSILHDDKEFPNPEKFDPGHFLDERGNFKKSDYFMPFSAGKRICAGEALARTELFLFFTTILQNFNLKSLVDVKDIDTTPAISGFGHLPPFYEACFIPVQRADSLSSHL
Procedure: as §1

[7] = biological target: T3, cyp1a2 (Rattus norvegicus, UniProt P04799); experiment: Cocktail method IC50 in rat liver microsomes, phenacetin probe; format: in vitro ADME
T3 construct: To this cocktail, 1 mg/ml of RLMs; from tissue; host or cells: rat liver microsomes, prepared in-house
T3 sequence (P04799 1-513): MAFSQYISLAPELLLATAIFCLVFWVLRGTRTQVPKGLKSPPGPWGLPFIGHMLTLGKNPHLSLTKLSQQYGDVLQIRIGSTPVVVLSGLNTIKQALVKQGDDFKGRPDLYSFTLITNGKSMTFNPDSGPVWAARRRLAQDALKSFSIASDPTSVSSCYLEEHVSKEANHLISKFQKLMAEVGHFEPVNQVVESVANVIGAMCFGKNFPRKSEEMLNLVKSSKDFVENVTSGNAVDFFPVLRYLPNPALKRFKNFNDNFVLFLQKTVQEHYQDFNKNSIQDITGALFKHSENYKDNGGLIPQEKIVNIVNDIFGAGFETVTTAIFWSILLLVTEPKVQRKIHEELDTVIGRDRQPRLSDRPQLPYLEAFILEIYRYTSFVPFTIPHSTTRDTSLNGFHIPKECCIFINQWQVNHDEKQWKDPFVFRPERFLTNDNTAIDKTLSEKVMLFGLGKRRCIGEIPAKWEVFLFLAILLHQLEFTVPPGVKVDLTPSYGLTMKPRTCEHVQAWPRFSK
Procedure: as §1

## C=CC(=O)N1CCC(Oc2cc3c(Nc4ccc(Cl)c(Cl)c4F)ncnc3cc2OC)CC1 [Poziotinib]
[1]
  effect on cyp2b1 activity in rats: inhibitory effect
[2]; 20 μM bupropion, cocktail, 30 min, read-out: IC50
  IC50: 8.79 µM
[2]; classes after Jin et al., 2015, read-out: inhibition class by IC50, CYP2B1
  IC50: 1 to 10 µM
[3]
  effect on cyp3a1/2 activity in rats: no significant inhibitory effect
[4]
  inhibitory effect on cyp3a1/2 (in words): did not show any obvious inhibitory effect
[4]; listed as poziotinib
  inhibitory effect on cyp3a1/2 (in words): not obvious
[4]; pH 7.4, probe midazolam (5 μM), 5 μM midazolam, cocktail, 30 min
  IC50 at 30 min: 303 µM
[5]; pre-incubation 0, 5, 10, 20 min, poziotinib 2-16 μM
  time- and concentration-dependent inhibition of cyp2b1: no time- or concentration-dependent inhibitory effects
[5]; pre-incubation 0, 5, 10, 20 min with NADPH
  reversibility of inhibition of cyp2b1: reversible
[6]
  inhibitory effect on cyp2c11 (in words): strong
[6]; 100 μM tolbutamide, cocktail, 30 min, read-out: IC50
  IC50: 20.2 µM
[6]; classes after Jin et al., 2015, read-out: inhibition class by IC50, CYP2C11
  IC50: > 10 µM
[7]
  inhibitory effect on cyp1a2 (in words): did not show any obvious inhibitory effect
[7]; 40 μM phenacetin, cocktail, 30 min
  IC50: 128 µM
[7]; listed as poziotinib
  inhibitory effect on cyp1a2 (in words): not obvious
